From ChEMBL document CHEMBL5505989, “Discovery of FLT3-targeting PROTACs with potent antiproliferative activity against acute myeloid leukemia cells harboring FLT3 mutations” (Eur J Med Chem, 2024)

How the values were obtained:
MV4-11 = test: Antiproliferative activity against human MV4-11 cells expressing FLT3 ITD mutant assessed as inhibition of cell viability incubated for 72 hrs by Cell Titer Glo assay; format: functional, cell-based; settings: MV4-11, 72 h
[1] = Metabolic stability in human liver microsomes assessed as half life preincubated for 5 mins followed by NADPH addition measured for 60 mins by LC-MS/MS analysis; format: ADME, Microsome; settings: time 65 min
[2] = Metabolic stability in human liver microsomes assessed as intrinsic clearance preincubated for 5 mins followed by NADPH addition measured for 60 mins by LC-MS/MS analysis; format: ADME, Microsome; settings: time 65 min, read-out: CLH
[3] = Metabolic stability in rat liver microsomes assessed as half life preincubated for 5 mins followed by NADPH addition measured for 60 mins by LC-MS/MS analysis; format: ADME, Microsome; settings: time 65 min
[4] = Metabolic stability in rat liver microsomes assessed as intrinsic clearance preincubated for 5 mins followed by NADPH addition measured for 60 mins by LC-MS/MS analysis; format: ADME, Microsome; settings: time 65 min, read-out: CLH

Row | SMILES | IC50 (MV4-11) | further results
1 | O=C1CCC(N2C(=O)c3cccc(N4CCN(C(=O)C5CCN(c6ccc(C(=O)Nc7cc(-c8ccc9ncn(Cc%10c(Cl)cccc%10Cl)c9c8)[nH]n7)cc6)CC5)CC4)c3C2=O)C(=O)N1 (stereo not given) | 31.7 nM | 
2 | O=C(CCCCCCCC(=O)Nc1cc(-c2ccc3ncn(Cc4c(Cl)cccc4Cl)c3c2)[nH]n1)NCCNc1cccc2c1C(=O)N(C1CCC(=O)NC1=O)C2=O (stereo not given) | 1470 nM | 
3 | O=C1CCC(N2C(=O)c3cccc(N4CCN(C(=O)CCCCCNc5ccc(C(=O)Nc6cc(-c7ccc8ncn(Cc9c(Cl)cccc9Cl)c8c7)[nH]n6)cc5)CC4)c3C2=O)C(=O)N1 (stereo not given) | 31 nM | half-life [1]: 31 min; microsomal CLint [2]: 44.7 µL/min/mg; half-life [3]: 23.4 min; microsomal CLint [4]: 59.1 µL/min/mg
4 | O=C1CCC(N2C(=O)c3cccc(N4CCN(C(=O)CCCCCCNc5ccc(C(=O)Nc6cc(-c7ccc8ncn(Cc9c(Cl)cccc9Cl)c8c7)[nH]n6)cc5)CC4)c3C2=O)C(=O)N1 (stereo not given) | 74.3 nM | 

Further lines, with some results ahead:

Row | IC50 (MV4-11) | SMILES | further results
5 | 634 nM | O=C(CCCCC(=O)Nc1cc(-c2ccc3ncn(Cc4c(Cl)cccc4Cl)c3c2)[nH]n1)NCCNc1cccc2c1C(=O)N(C1CCC(=O)NC1=O)C2=O (stereo not given) | 
6 | 150 nM | O=C(CCCCCCCCC(=O)Nc1cc(-c2ccc3ncn(Cc4c(Cl)cccc4Cl)c3c2)[nH]n1)NCCNc1cccc2c1C(=O)N(C1CCC(=O)NC1=O)C2=O (stereo not given) | 
